This passage reports Ki results from patent US11401270B2, “Alcoxyamino derivatives for treating pain and pain related conditions” (ESTEVE PHARMACEUTICALS, S.A., priority 2017, dated 2022).

Structures are written as SMILES.

For the experiment, the target named is Human α2δ-1 subunit of Cav2.2 calcium channel (Homo sapiens (Human), UniProt P54289). Kind of experiment: Binding Assay to Human α2δ-1 Subunit of Cav2.2 Calcium Channel. Conditions: Table 1; human α2δ-1 enriched membranes, 15 nM [3H]-Gabapentin; read-out: Ki(nM) alpha2delta Hum. How it is done: Binding Assay to Human α2δ-1 Subunit of Cav2.2 Calcium Channel.
Sequence of Human α2δ-1 subunit of Cav2.2 calcium channel (P54289 25-1103): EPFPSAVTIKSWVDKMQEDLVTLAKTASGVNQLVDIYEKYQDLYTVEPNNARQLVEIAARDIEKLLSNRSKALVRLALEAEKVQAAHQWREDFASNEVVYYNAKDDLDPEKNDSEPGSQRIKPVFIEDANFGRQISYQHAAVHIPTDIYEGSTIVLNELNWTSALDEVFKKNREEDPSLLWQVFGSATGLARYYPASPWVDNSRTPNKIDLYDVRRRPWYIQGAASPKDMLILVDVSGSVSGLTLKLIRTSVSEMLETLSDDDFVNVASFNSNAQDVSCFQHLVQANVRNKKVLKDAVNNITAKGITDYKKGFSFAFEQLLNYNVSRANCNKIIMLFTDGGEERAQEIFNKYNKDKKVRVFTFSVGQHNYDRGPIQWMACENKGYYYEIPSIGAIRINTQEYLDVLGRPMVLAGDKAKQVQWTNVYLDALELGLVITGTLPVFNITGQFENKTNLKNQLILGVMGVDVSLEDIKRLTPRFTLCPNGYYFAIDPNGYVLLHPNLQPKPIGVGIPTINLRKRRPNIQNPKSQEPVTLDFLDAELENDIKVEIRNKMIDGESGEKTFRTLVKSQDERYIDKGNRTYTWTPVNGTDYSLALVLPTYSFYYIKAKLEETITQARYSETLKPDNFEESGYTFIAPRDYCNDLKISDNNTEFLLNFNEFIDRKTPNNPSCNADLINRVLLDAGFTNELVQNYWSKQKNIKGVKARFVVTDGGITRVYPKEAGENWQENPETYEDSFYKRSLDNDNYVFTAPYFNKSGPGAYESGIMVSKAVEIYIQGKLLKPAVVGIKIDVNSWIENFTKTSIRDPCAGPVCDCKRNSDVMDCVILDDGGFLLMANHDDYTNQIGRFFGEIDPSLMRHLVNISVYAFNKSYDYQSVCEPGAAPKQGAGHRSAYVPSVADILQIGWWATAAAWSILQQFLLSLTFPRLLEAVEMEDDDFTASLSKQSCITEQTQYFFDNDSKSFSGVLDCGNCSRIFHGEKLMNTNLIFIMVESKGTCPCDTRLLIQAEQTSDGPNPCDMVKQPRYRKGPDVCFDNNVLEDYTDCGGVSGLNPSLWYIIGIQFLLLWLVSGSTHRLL
NSB (non specific binding) was measured by adding 10 μM pregabalin. The binding of the test compound was measured in five different concentrations. After 60 min incubation at 27° C., binding reaction was terminated by filtering through Multiscreen GF/C (Millipore) presoaked in 0.5% polyethyleneimine in Vacuum Manifold Station, followed by 3 washes with ice-cold filtration buffer containing 50 mM Tris-HCl, pH 7.4.
Filter plates were dried at 60° C. for 1 hour and 30 μl of scintillation cocktail were added to each well before radioactivity reading.
Consider `CNCCC(OCc1cccc(N2CCN(C)c3cc(F)cnc3C2=O)c1)c1ccccc1` (stereo not drawn) [Example 27, 8-Fluoro-1-methyl-4-(3-((3-(methylamino)-1-phenylpropoxy)methyl)phenyl)-1,2,3,4-tetrahydro-5H-pyrido[3,2-e][1,4]diazepin-5-one], for which the Ki was in the range of 100 to 500 nM.
`CCNC[C@@H]1CC(=O)N(c2cccc(O[C@@H](CCNC)c3ccccc3)c2)CCN1C` [Example 23, (S)-7-((ethylamino)methyl)-1-methyl-4-(3-((S)-3-(methylamino)-1-phenylpropoxy)phenyl)-1,4-diazepan-5-one]: the Ki was greater than 3000 nM.
For `CNCCC(Oc1cccc(N2CCN(C)c3cc(F)cnc3C2=O)c1)c1cccs1` (stereo not drawn) [Example 74, 8-Fluoro-1-methyl-4-(3-(3-(methylamino)-1-(thiophen-2-yl)propoxy)phenyl)-1,2,3,4-tetrahydro-5H-pyrido[3,2-e][1,4]diazepin-5-one], the Ki was greater than 3000 nM.
The figure for `CNCCC(OCc1cccc(N2CCN(C)c3cccnc3C2=O)c1)c1ccccc1` (stereo not drawn) [Example 26, 1-Methyl-4-(3-((3-(methylamino)-1-phenylpropoxy)methyl)phenyl)-1,2,3,4-tetrahydro-5H-pyrido[3,2-e][1,4]diazepin-5-one] is 500 to 3000 nM; for `CNCCC(OCc1ccc(CN2CCN(C)c3ccccc3C2=O)cc1)c1ccccc1` (stereo not drawn) [Example 88, 1-Methyl-4-(4-((3-(methylamino)-1-phenylpropoxy)methyl)benzyl)-1,2,3,4-tetrahydro-5H-benzo[e][1,4]diazepin-5-one] it is greater than 3000 nM; for `CCNC[C@@H]1CC(=O)N(c2cccc(O[C@@H](CCNC)c3cccs3)c2)CCN1C` [Example 87, (S)-7-((ethylamino)methyl)-1-methyl-4-(3-((S)-3-(methylamino)-1-(thiophen-2-yl)propoxy)phenyl)-1,4-diazepan-5-one] it is 500 to 3000 nM.
Consider `CNCC[C@H](Oc1ccc(CN2CCCn3nc(C)cc3C2=O)c(C)c1)c1cccs1` [Example 124, (S)-2-methyl-5-(2-methyl-4-(3-(methylamino)-1-(thiophen-2-yl)propoxy)benzyl)-5,6,7,8-tetrahydro-4H-pyrazolo[1,5-a][1,4]diazepin-4-one], for which the Ki was less than 100 nM.
Next, `CNCCC(Oc1cccc(N2CC(=O)N(C)c3ccccc3C2=O)c1)c1cccs1` (stereo not drawn) [Example 51, 1-Methyl-4-(3-(3-(methylamino)-1-(thiophen-2-yl)propoxy)phenyl)-3,4-dihydro-1H-benzo[e][1,4]diazepine-2,5-dione]: greater than 3000 nM.
Take `CCNC[C@H]1CC(=O)N(c2cccc(O[C@@H](CCNC)c3ccccc3)c2)CCN1C` [Example 22, (R)-7-((ethylamino)methyl)-1-methyl-4-(3-((S)-3-(methylamino)-1-phenylpropoxy)phenyl)-1,4-diazepan-5-one]: the Ki was greater than 3000 nM.
Take `CNCC(OCc1ccc(N2CCN(C)c3ccccc3C2=O)cc1)c1ccccc1` (stereo not drawn) [Example 85, 1-Methyl-4-(4-((2-(methylamino)-1-phenylethoxy)methyl)phenyl)-1,2,3.4-tetrahydro-5H-benzo[e][1,4]diazepin-5-one]: the Ki was greater than 3000 nM.
`CNCCC(OCc1cccc(CN2CCN(C)c3ccccc3C2=O)c1)c1ccccc1` (stereo not drawn) [Example 89, 1-Methyl-4-(3-((3-(methylamino)-1-phenylpropoxy)methyl)benzyl)-1,2,3,4-tetrahydro-5H-benzo[e][1,4]diazepin-5-one]: the Ki is greater than 3000 nM.
`CNCCC(Oc1cccc(CN2CCN(C)c3ccccc3C2=O)c1)c1ccccc1` (stereo not drawn) [Example 113, 1-Methyl-4-(3-(3-(methylamino)-1-phenylpropoxy)benzyl)-1,2,3,4-tetrahydro-5H-benzo[e][1,4]diazepin-5-one]: the Ki is greater than 3000 nM.
Take `CNCC[C@@H](OCc1cccc(N2CCN(C)c3ccccc3C2=O)c1)c1ccccc1` [Example 47, (R)-1-methyl-4-(3-((3-(methylamino)-1-phenylpropoxy)methyl)phenyl)-1,2,3,4-tetrahydro-5H-benzo[e][1,4]diazepin-5-one]: the Ki lay in the range of 500 to 3000 nM.
Next, `CCNC[C@H]1CN(C)CCN(c2cccc(O[C@@H](CCNC)c3ccccc3)c2)C1=O` [Example 24, (S)-6-((ethylamino)methyl)-1-methyl-4-(3-((S)-3-(methylamino)-1-phenylpropoxy)phenyl)-1,4-diazepan-5-one]: greater than 3000 nM; `CNCCC(OCc1cccc(N2CCCCCC2=O)c1)c1ccccc1` (stereo not drawn) [Example 35, 1-(3-((3-(Methylamino)-1-phenylpropoxy)methyl)phenyl)azepan-2-one]: 500 to 3000 nM; `CNCC[C@@H](OCc1cccc(N2CCCN(C)CC2)c1)c1ccccc1` [Example 13, (R)-N-methyl-3-((3-(4-methyl-1,4-diazepan-1-yl)benzyl)oxy)-3-phenylpropan-1-amine]: 500 to 3000 nM.
The figure for `CNCCC(Oc1cccc(N2CCCCCC2=O)c1)c1ccccc1` (stereo not drawn) [Example 33, 1-(3-(3-(Methylamino)-1-phenylpropoxy)phenyl)azapan-2-one] is greater than 3000 nM; for `CNCCC(OCc1cccc(N2CCN(C)c3ncccc3C2=O)c1)c1ccccc1` (stereo not drawn) [Example 45, 1-Methyl-4-(3-((3-(methylamino)-1-phenylpropoxy)methyl)phenyl)-1,2,3,4-tetrahydro-5H-pyrido[2,3-e][1,4]diazepin-5-one] it is 500 to 3000 nM; for `CNCC[C@@H](OCc1cccc(N2CCN(C)c3ccccc3C2=O)c1)c1cccs1` [Example 14, (R)-1-methyl-4-(3-((3-(methylamino)-1-(thiophen-2-yl)propoxy)methyl)phenyl)-1,2,3,4-tetrahydro-5H-benzo[e][1,4]diazepin-5-one] it is 100 to 500 nM.
As to `CNCC[C@H](Oc1ccc(CN2CCN(C)c3ncccc3C2=O)c(C)c1)c1cccs1` [Example 107, (S)-1-methyl-4-(2-methyl-4-(3-(methylamino)-1-(thiophen-2-yl)propoxy)benzyl)-1,2,3,4-tetrahydro-5H-pyrido[2,3-e][1,4]diazepin-5-one], the Ki is less than 100 nM.
For `CNCC[C@H](Oc1ccc(CN2CCN(C)c3ncc(F)cc3C2=O)c(C)c1)c1cccs1` [Example 125, (S)-7-fluoro-1-methyl-4-(2-methyl-4-(3-(methylamino)-1-(thiophen-2-yl)propoxy)benzyl)-1,2,3,4-tetrahydro-5H-pyrido[2,3-e][1,4]diazepin-5-one], the Ki was less than 100 nM.
Turning to `CNCCC(Oc1ccc(CN2CCCN(C)CC2)cc1)c1cccs1` (stereo not drawn) [Example 102, N-methyl-3-(4-((4-methyl-1,4-diazepan-1-yl)methyl)phenoxy)-3-(thiophen-2-yl)propan-1-amine], the Ki is greater than 3000 nM.
For `CNCCC(Oc1cccc(N2CCCN(C)CC2=O)c1)c1cccs1` (stereo not drawn) [Example 52, 4-Methyl-1-(3-(3-(methylamino)-1-(thiophen-2-yl)procoxy)phenyl)-1,4-diazepan-2-one], the Ki was greater than 3000 nM.
Regarding `CNCCC(Oc1cccc(N2CCN(C)c3cccnc3C2=O)c1)c1cccs1` (stereo not drawn) [Example 57, 1-Methyl-4-(3-(3-(methylamino)-1-(thiophen-2-yl)propoxy)phenyl)-1,2,3,4-tetrahydro-5H-pyrido[3,2-e][1,4]diazepin-5-one], the Ki was 500 to 3000 nM.
The figure for `CCNC1CCCN(c2cccc(O[C@@H](CCNC)c3cccs3)c2)C(=O)C1` (single isomer, unassigned) [Example 118a] is 500 to 3000 nM; for `CNCCC(OCc1cccc(N2CCN(C)c3ccccc3C2=O)c1)c1cccc(F)c1` (stereo not drawn) [Example 40, 4-(3-((1-(3-Fluorophenyl)-3-(methylamino)propoxy)methyl)phenyl)-1-methyl-1,2,3,4-tetrahydro-5H-benzo[e][1,4]diazepin-5-one] it is 500 to 3000 nM.
The figure for `CNCC[C@H](Oc1ccc(CN2CCN(C)c3ncccc3C2=O)c(C2CC2)c1)c1ccccc1` [Example 133, (S)-4-(2-cyclopropyl-4-(3-(methylamino)-1-phenylpropoxy)benzyl)-1-methyl-1,2,3,4-tetrahydro-5H-pyrido[2,3-e][1,4]diazepin-5-one] is 100 to 500 nM; for `CNCC[C@H](OCc1cccc(N2C[C@@H]3CCCN3c3ccccc3C2=O)c1)c1ccccc1` [Example 30, (S)-5-(3-(((S)-3-(methylamino)-1-phenylpropoxy)methyl)phenyl)-1,2,3,3a,4,5-hexahydro-6H-benzo[f]pyrrolo[1,2-a][1,4]diazepin-6-one] it is greater than 3000 nM; for `CNCC[C@H](Oc1ccc(CN2CCN(C)c3ncccc3C2=O)c(C2CC2)c1)c1cccs1` [Example 128, (S)-4-(2-cyclopropyl-4-(3-(methylamino)-1-(thiophen-2-yl)propoxy)benzyl)-1-methyl-1,2,3,4-tetrahydro-5H-pyrido[2,3-e][1,4]diazepin-5-one] it is 100 to 500 nM.
`CNCCC(Oc1cccc(C(=O)N2CCN(C)c3ccccc3C2)c1)c1cccs1` (stereo not drawn) [Example 4, (1-Methyl-1,2,3,5-tetrahydro-4H-benzo[e][1,4]diazepin-4-yl)(3-(3-(methylamino)-1-(thiophen-2-yl)propoxy)phenyl)methanone]: the Ki was 500 to 3000 nM.
With `CNCC[C@@H](Oc1cccc(N2CCN(C)c3nc(C)ccc3C2=O)c1)c1ccsc1` [Example 79, (R)-1,8-dimethyl-4-(3-(3-(methylamino)-1-(thiophen-3-yl)propoxy)phenyl)-1,2,3,4-tetrahydro-5H-pyrido[2,3-e][1,4]diazepin-5-one], the Ki is 100 to 500 nM.
The figure for `CNCC[C@H](OCc1cccc(N2CCN(C)c3ccccc3C2=O)c1)c1ccccc1` [Example 49] is greater than 3000 nM; for `CNCCC(Oc1cccc(N2CCCN(C)CC2)c1)c1cccs1` (stereo not drawn) [Example 8, N-methyl-3-(3-(4-methyl-1,4-diazepan-1-yl)phenoxy)-3-(thiophen-2-yl)propan-1-amine] it is 100 to 500 nM.
